From patent US11427533B2, “Crystalline polymorphs of bardoxolone methyl” (PLIVA HRVATSKA d.o.o., priority 2017, dated 2022)
Values after ≈ are worked out from the molar mass of the structure shown. “Also recorded” adds a separate entry of the source. Like-named read-outs stand apart in the source and are kept apart here.

Tests used:
[1] = as indicated in WO2010093944; cited from earlier work
[2] = Solubility in aqueous buffers, shaker at 37° C., filtrate by UHPLC; format: physicochemical; conditions: for solubility thermodynamic at 2 h: 37 °C, thermodynamic from solid, read-out: Concentration mg/mL (UHPLC); for solubility thermodynamic at 2 h / Concentration mg/mL (UHPLC): 150 mg/8 mL suspension; for Solubility compared with crystalline form A / Solubility compared with non-crystalline (amorphous) form B: in words
Procedure: UHPLC analyses was performed on Agilent 1290 Infinity LC system with a DAD. UV spectra were recorded at 190-400 nm, with the working wavelength of 240 nm. The column used was Waters Acquity UPLC BEH Phenyl (100 mm×2.1 mm i.d., particle size 1.7 μm), at the column temperature of 50° C. Mobile phases employed for gradient elution were water with 0.1% of formic acid as mobile phase A and acetonitrile with 0.1% of formic acid as mobile phase B. Gradient conditions for the analysis were: isocratic flow from 0.0 to 0.5 min with 40% of mobile phase B; linear gradient from 40% of mobile phase B up to 90% of mobile phase B from 0.5 to 4.0 min; isocratic flow at 90% of mobile phase B from 4.0 to 4.5 min; linear gradient down to 40% of mobile phase B from 4.5 to 5.0 min and finally, reconditioning the column for 0.5 min on starting conditions. 1 μL to 10 μL of sample solution was injected at a flow rate of 0.7 mL min^−1.
Solubility of Bardoxolone methyl form D and the patent forms in U.S. Pat. Nos. 8,309,601 and 8,088,824 were determined in aqueous buffers and water. Suspension of tested substance (150 mg/8 mL) was stirred on a shaker (200 rpm) in a closed vial at 37° C. Suspension was filtered and concentration of Bardoxolone methyl in filtrate was determined by UHPLC. Undissolved residue was analyzed by XRPD.

[3] = Physical stability of Form D (pressure, heating, sauna), form checked by XRPD; format: physicochemical; conditions: for XRD form after transformation by sauna (closed flask, RT): 1 day; for XRD form after pressure: 1 min
Procedure: Crystalline Form D of Bardoxolone is also stable to conversion after exposure to an atmosphere containing organic solvents, for example ethylene glycol, in a closed vessel at room temperature for 24 hours). Such stability may enable the use of form D in variety of preparation methods including preparation of solid dispersion by spray drying, wet granulation etc.
Sample after being powdered in a mortar and pestle is applied directly on a silicon plate holder. The X-ray powder diffraction pattern was measured with Philips X'Pert PRO X-ray powder diffractometer, equipped with Cu irradiation source=1.54184 Å (Ångström), X'Celerator (2.022° 2θ) detector.
The physical stability of Form D was investigated at different conditions: in heating, under pressure and by sauna.

[4] = buffer pH 1.2 (0.063M HCl + 2.0 g/L NaCl), 2 h at 37° C.
[5] = buffer pH 4.5 (0.05M acetate buffer PhEur), 2 h at 37° C.

Structure (SMILES) | Oral bioavailability (in words) [1] | solubility thermodynamic at 2 h ([2]; HCl/NaCl buffer, pH 1.2, simulated gastric fluid, buffer pH 1.2 (0.063M HCl + 2.0 g/L NaCl), 2 h at 37° C.) [µg/mL] | solubility thermodynamic at 2 h ([2]; acetate buffer, pH 4.5, aqueous buffer, buffer pH 4.5 (0.05M acetate buffer PhEur), 2 h at 37° C.) [µg/mL] | Concentration mg/mL (UHPLC) [2, 4] | Concentration mg/mL (UHPLC) [2, 5] | Solubility compared with crystalline form A [2] | Solubility compared with non-crystalline (amorphous) form B [2] | Solubility compared with crystalline form A ([2]; listed as form D) | Solubility compared with non-crystalline (amorphous) form B ([2]; listed as form D) | XRD form after heating (open vessel) ([3]; 100° C., 5 min) | XRD form after transformation by sauna (closed flask, RT) ([3]; ethylene glycol) | Polymorphic stability, conversion to other forms (in words) ([3]; pressure 1 t or 2 t 1 min, 100° C. 5 min, water sauna RT 90%-100% RH 24 hours, ethylene glycol atmosphere RT 24 hours) | XRD form after pressure ([3]; pressure 1 t) | XRD form after pressure ([3]; pressure 2 t) | XRD form after transformation by sauna (closed flask, RT) ([3]; water) | Concentration mg/mL (UHPLC) ([2]; buffer pH 1.2 (0.063M HCl + 2.0 g/L NaCl), 4 h at 37° C.)
COC(=O)[C@]12CCC(C)(C)C[C@H]1[C@H]1C(=O)C=C3[C@]4(C)C=C(C#N)C(=O)C(C)(C)[C@@H]4CC[C@@]3(C)[C@]1(C)CC2 [Form B, Methyl-2-cyano-3,12-dioxooleana-1,9(11)-dien-28-oic acid, reference compound] | markedly superior oral bioavailability compared to Form A | 0.08 | 0.04 (≈ 0.0791 µM) |  |  |  |  |  |  |  |  |  |  |  |  | 
COC(=O)[C@]12CCC(C)(C)C[C@H]1[C@H]1C(=O)C=C3[C@]4(C)C=C(C#N)C(=O)C(C)(C)[C@@H]4CC[C@@]3(C)[C@]1(C)CC2 [Form D, Methyl-2-cyano-3,12-dioxooleana-1,9(11)-dien-28-oic acid] |  |  |  | 0.00004 mg/mL | 0.00002 mg/mL | improved solubility | comparable solubility | higher | comparable | Form D | Form D | maintained; also recorded: resistant to conversion to any other forms | Form D | Form D | Form D | 
COC(=O)[C@]12CCC(C)(C)C[C@H]1[C@H]1C(=O)C=C3[C@]4(C)C=C(C#N)C(=O)C(C)(C)[C@@H]4CC[C@@]3(C)[C@]1(C)CC2 [Form A, Methyl-2-cyano-3,12-dioxooleana-1,9(11)-dien-28-oic acid, reference compound] | relatively low oral bioavailability |  |  | LTQL | LTQL |  |  |  |  |  |  |  |  |  |  | LTQL
